Test results as given in PubChem BioAssay (NCI).
Several values for one entry are separate records, joined by “and”; a condition that tells them apart may be missing. Equal entries are not always repeated.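 96-well plates; 48 h exposure; 5 concentrations. Endpoints by linear interpolation between flanking doses. Not reached: highest tested concentration assigned. Here, GI50 denotes the concentration required for 50% inhibition of growth. The concentration for full growth arrest is given as TGI.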

Experiments:
Assay in all cases: NCI tumour cell line growth inhibition, 48 h
[1] = test system: DMS 114 small cell lung
[2] = test system: SW-620 colon
[3] = test system: DMS 273 small cell lung
[4] = test system: CAKI-1 renal
[5] = test system: DLD-1 colon
[6] = test system: SN12C renal
[7] = test system: CCRF-CEM leukemia
[8] = test system: EKVX NSCLC
[9] = test system: LXFL 529 NSCLC
[10] = test system: HCC-2998 colon
[11] = test system: U251 CNS
[12] = test system: PC-3 prostate

| Compound | TGI [1] [µM] | TGI [2] | TGI [3] [µM] | TGI [4] | TGI [5] [µM] | TGI [6] | TGI [7] | TGI [8] | TGI [9] [µM] | TGI [10] | TGI [11] | GI50 [2] | GI50 [4] | GI50 [12] | TGI [12] | GI50 [6] | GI50 [7] | GI50 [8] | GI50 [11] | GI50 [10] |
| --- | --- | --- | --- | --- | --- | --- | --- | --- | --- | --- | --- | --- | --- | --- | --- | --- | --- | --- | --- | --- |
| CC1=C(CC2C(=O)N(c3ccccc3)S(=O)(=O)NC2C)C(=O)N(c2ccccc2)S(=O)(=O)N1C (stereo not given) | > 100 | > 100 µM | > 100 | > 100 µM | > 100 | > 100 µM | > 100 µM | > 100 µM | > 100 | > 100 µM |  |  |  |  |  |  |  |  |  |  |
| CCCC(S(=O)(=O)c1ccccc1)S(=O)(=O)c1ccccc1 | > 100 | > 100 µM | > 100 | > 100 µM | > 100 |  | > 100 µM | > 100 µM | > 100 | > 100 µM | > 100 µM |  |  |  |  |  |  |  |  |  |
| NC1=NC(=O)C(CC(=O)Nc2ccc(Cl)cc2Cl)S1 (stereo not given) |  | > 100 µM | > 100 | > 100 µM | > 100 | > 100 µM | > 100 µM | > 100 µM | > 100 | > 100 µM | > 100 µM |  |  |  |  |  |  |  |  |  |
| O=C1C=C(O)C(=Cc2c(O)cc(O)cc2O)C(O)=C1 | > 100 | > 100 µM | > 100 | > 100 µM | > 100 | > 100 µM | > 100 µM | > 100 µM | > 100 | > 100 µM | > 100 µM |  |  |  |  |  |  |  |  |  |
| O=C1c2ccccc2N2OC3(N4CCCC4)CCCCC3C12c1ccccc1 (stereo not given) | 28.4 | 31.5 µM | 30.9 |  | 46.3 | 30.5 µM | 47.5 µM | > 100 µM | 27.7 | > 100 µM | > 100 µM |  |  |  |  |  |  |  |  |  |
| CC1=C(C(=O)Nc2ccc(Cl)c(Cl)c2)C(c2ccc([N+](=O)[O-])cc2)C(C(=O)Nc2ccc(Cl)c(Cl)c2)=C(C)N1 | 9.66 | 12.4 µM | 9.14 | 16 µM | > 41.7 | 7.3 µM |  | 15.4 µM | 11.8 | 4.98 µM | 11.5 µM |  |  |  |  |  |  |  |  |  |
| c1ccc2c(c1)CCc1c-2n[nH]c1-c1[nH]nc2c1CCc1ccccc1-2 | > 100 | > 100 µM | > 100 | > 100 µM | > 100 | > 100 µM | > 100 µM | > 100 µM | > 100 | > 100 µM | > 100 µM |  |  |  |  |  |  |  |  |  |
| COc1cc(C2(C)SCCCS2)cc(OC)c1OC | > 100 | > 100 µM | > 100 | > 100 µM | > 100 | > 100 µM | > 100 µM | > 100 µM | > 100 | > 100 µM | > 100 µM |  |  |  |  |  |  |  |  |  |
| COc1ccc(OC(=O)CC2Cc3cc(OC)c(OC)c(OC)c3-c3ccc(SC)c(=O)cc32)cc1 (stereo not given) | 5.52 | > 39.7 µM | > 100 |  | > 34.6 | > 71.8 µM | 10.1 µM | > 100 µM | 11.3 | 0.503 µM | > 100 µM |  |  |  |  |  |  |  |  |  |
| CC(=O)/C(=C\c1ccccc1O)C(=O)Nc1ccccc1C | > 100 | 53.7 µM |  | 63.8 µM | 79.1 |  | 84.9 µM | 96.8 µM | 98.6 | 29.3 µM | 24.7 µM |  |  |  |  |  |  |  |  |  |
| Cc1ccccc1-n1c(N)c(-c2nc3ccccc3[nH]2)sc1=S | 59 | 72.5 µM | 35 | 71.4 µM | 64.6 | 56.9 µM | > 100 µM | 88.5 µM | 50.4 | 34.8 µM |  |  |  |  |  |  |  |  |  |  |
| COc1ccc(-c2cc(=O)c3c(O)cccc3o2)c(OC)c1OC | > 100 | > 100 µM | > 100 | > 100 µM | > 100 | > 100 µM | > 100 µM |  | > 100 | > 100 µM | > 100 µM |  |  |  |  |  |  |  |  |  |
| Cc1cccc(NC(=O)/C(=N\N)C(c2cnc3ccc([N+](=O)[O-])cc3n2)[N+](=O)[O-])c1C (stereo not given) | > 100 | > 100 µM | > 100 | > 100 µM | > 100 | > 100 µM | > 100 µM | > 100 µM | > 100 | > 100 µM |  |  |  |  |  |  |  |  |  |  |
| O=C(NCCNCCO)c1cccc2ccc(-c3ccccc3)nc12 | 19.8 | 14.2 µM | 14.1 | 14.1 µM | 19.5 | 17.6 µM | 27.1 µM | 19.7 µM |  | 17.1 µM | 17.4 µM |  |  |  |  |  |  |  |  |  |
| COc1ccc(/C=C(/C)[N+](=O)[O-])cc1OC |  | 3.04 µM and 2.7 µM |  | 4.04 µM and 1.46 µM |  | 6.07 µM and 5.77 µM | 5.31 µM and 5.72 µM | 28.6 µM and 19.8 µM |  | 3.27 µM and 3.32 µM | 6.14 µM and 3.14 µM | 1.56 µM and 1.1 µM | 1.88 µM and 0.338 µM | 2.65 µM and 2.78 µM | 6.34 µM and 6.74 µM | 2.35 µM and 2.18 µM | 1.96 µM and 0.786 µM | 10.9 µM and 5.4 µM | 2.3 µM and 1.67 µM | 1.8 µM and 1.77 µM |
| O=C(O)CCNS(=O)(=O)c1ccc([N+](=O)[O-])cc1 |  | > 100 µM | > 100 | > 100 µM | > 100 | > 100 µM | > 100 µM | > 100 µM | > 100 | > 100 µM | > 100 µM |  |  |  |  |  |  |  |  |  |
| COc1cc(C(=O)Nc2cc(O)c(CC=C(C)C)c(O)c2)cc2c1O[C@]1(C)CC[C@@H](O)C(C)(C)[C@H]1C2 |  | 11.9 µM |  | 63.1 µM |  | 60.2 µM | > 100 µM | 32 µM |  | 13.8 µM | 17.4 µM | 1.15 µM | 0.491 µM | 0.142 µM | 37.5 µM | 8.12 µM | 0.0962 µM | 2.71 µM | 0.0399 µM | 3.13 µM |
| COc1cc2c(cc1F)C(c1ccccc1Cl)=Nc1c(n[nH]c1C)N2 |  | 20 µM |  | 14.7 µM |  | 18.3 µM | > 100 µM | 18.4 µM |  | 24.1 µM | 18.3 µM | 0.486 µM | 0.609 µM | 12.3 µM | > 50.1 µM | 1.38 µM | 0.982 µM | 2.84 µM | 0.583 µM | 11.3 µM |
| N#CNc1nc(N)c(-c2ccc(Cl)cc2)c(C(=O)Nc2nccs2)n1 | > 100 | > 100 µM | > 100 | > 100 µM | > 100 | > 100 µM |  | > 100 µM | > 100 | > 100 µM | > 100 µM |  |  |  |  |  |  |  |  |  |
